Measured values as given in patent US9980948B2, “Azaindole derivative having AMPK-activating activity” (Shionogi & Co., Ltd., priority 2014, dated 2018).
Read-outs that look alike come from different tables or passages of the source.

Biological target: T1, Human AMPK α2β2γ1 (Homo sapiens, UniProt O43741+P54646)
T1 construct: The full length cDNAs of human AMPK β2 (NM_005399.3) and human AMPK α2 (NM_006252.3); The full length cDNAs of human AMPK β2 (NM_005399.3); the full length cDNA of human AMPK γ1 (NM_002733.3) had been inserted into pET28b(+); 6xHis (N); made in house; host or cells: Escherichia coli BL21 CodonPlus (DE3)-RTL (AMPK); BL21 Star (DE3) (CaMKKβ)
T1 sequence (P54646 whole entry): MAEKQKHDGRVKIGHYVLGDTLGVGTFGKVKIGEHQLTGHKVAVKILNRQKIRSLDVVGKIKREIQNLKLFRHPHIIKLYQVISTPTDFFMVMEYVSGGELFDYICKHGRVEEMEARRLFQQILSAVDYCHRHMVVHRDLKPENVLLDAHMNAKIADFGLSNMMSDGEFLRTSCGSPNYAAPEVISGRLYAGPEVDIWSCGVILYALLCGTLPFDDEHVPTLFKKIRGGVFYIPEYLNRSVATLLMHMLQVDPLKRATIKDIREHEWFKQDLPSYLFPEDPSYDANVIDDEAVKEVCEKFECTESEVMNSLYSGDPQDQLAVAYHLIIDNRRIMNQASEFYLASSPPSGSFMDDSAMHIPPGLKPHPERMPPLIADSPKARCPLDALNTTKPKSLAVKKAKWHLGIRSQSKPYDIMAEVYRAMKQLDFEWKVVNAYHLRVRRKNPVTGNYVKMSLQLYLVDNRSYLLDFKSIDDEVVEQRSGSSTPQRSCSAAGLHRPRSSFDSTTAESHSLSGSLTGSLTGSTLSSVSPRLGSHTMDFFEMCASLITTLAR
T1 sequence (O43741 whole entry): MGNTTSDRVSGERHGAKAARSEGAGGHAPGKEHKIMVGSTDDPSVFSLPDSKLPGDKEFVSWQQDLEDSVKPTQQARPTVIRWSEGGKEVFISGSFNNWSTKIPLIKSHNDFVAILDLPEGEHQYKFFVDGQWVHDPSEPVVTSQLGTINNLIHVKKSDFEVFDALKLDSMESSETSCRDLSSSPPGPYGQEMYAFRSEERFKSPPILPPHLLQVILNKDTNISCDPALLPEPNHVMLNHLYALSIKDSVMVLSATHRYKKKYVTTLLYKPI
T1 sequence (P54619 whole entry partner): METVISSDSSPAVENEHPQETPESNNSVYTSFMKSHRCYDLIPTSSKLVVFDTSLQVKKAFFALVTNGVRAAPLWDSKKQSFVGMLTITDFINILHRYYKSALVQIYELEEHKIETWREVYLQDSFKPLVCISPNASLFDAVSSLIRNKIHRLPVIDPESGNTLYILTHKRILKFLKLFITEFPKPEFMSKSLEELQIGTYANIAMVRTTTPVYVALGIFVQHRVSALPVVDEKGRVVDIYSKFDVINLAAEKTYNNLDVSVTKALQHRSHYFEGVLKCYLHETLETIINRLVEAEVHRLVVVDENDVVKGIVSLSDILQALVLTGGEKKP
Assay: Test Example 2: evaluation of an activator for AMP-activated protein kinase (AMPK), human AMPK α2β2γ1 phosphorylated with CaMKK2, FL-Peptide 7 mobility shift
Format: biochemical
Conditions: for Emax: read-out: Emax (maximum rate of increase in activity within the measurement range)
Procedure: The full length cDNAs of human AMPK β2 (NM_005399.3) and human AMPK α2 (NM_006252.3) were inserted into the MCS1 and MCS2 of the pETDuet-1 vector to prepare a human AMPK β2 and human AMPK α2 (6× His tag at the 5′ terminus) expressing plasmid. The plasmid was cotransfected with an expression plasmid, in which the full length cDNA of human AMPK γ1 (NM_002733.3) had been inserted into pET28b(+), into BL21 CodonPlus (DE3)-RTL to obtain an expression strain. The expression strain was cultured in TB medium, followed by induction with 0.5 mM IPTG, and cultured at 25° C. for 3 hours and then harvested.
An expression vector, in which the full length cDNA of human CAMKK β (NM_172226.1) had been inserted into pGEX-6P-3, was transfected into BL21 Star (DE3). The expression strain was cultured in TB medium, followed by induction with 0.5 mM IPTG, and cultured at 25° C. for 3 hours and then harvested.
Thus, phosphorylation treatment was carried out as pretreatment.
Human AMPK α2β2γ1 in an amount to give a conversion rate of approximately 10% by reaction for 2 hours, and CaMKK2 in an amount capable of sufficiently imparting activity to AMPK for one hour were mixed in a buffer solution consisting of a 50 mM HEPES-NaOH buffer solution (pH 7.0), 100 mM NaCl, 5 mM magnesium chloride, 0.1% bovine serum albumin, 0.2 mM sodium orthovanadate(V), 1 mM ethylene glycol-bis(2-aminoethyl ether)-N,N,N′,N′-tetraacetic acid (EGTA), 5 mM disodium β-glycerophosphate, 1 mM dithiothreitol and 0.2 mM ATP, and the obtained liquid was left to stand at 25° C. for 1 to 1.5 hours to sufficiently phosphorylate AMPK.
The obtained liquid was left to stand for 10 minutes.
The obtained liquid was allowed to react at 25° C. for 2 hours, and 10 μl of 20 mM EDTA was then added thereto to stop the reaction.
To detect phosphorylated fluorescent substrates, the reaction liquid was applied to a measuring device, LabChip EZ Reader II manufactured by Caliper Life Science, Inc., for detecting fluorescence by using differences in mobility due to differences in charge. The setting conditions for the device were pressure, −1.5 PSI; upstream voltage, −2250 V; downstream voltage, −400 V; post sample buffer sip time, 40 seconds; final delay, 120 seconds; and peak order, Product First.
A conversion rate was calculated from the peak heights of the resulting substrate and product. The conversion rate when not containing a compound was used as a control, and a concentration dependent curve was made by plotting the rate of increase in activity to the control at each concentration of a compound.

[1] = human AMPK α2β2γ1, 0.2 mM ATP final, 25° C., 2 hours
[2] = human AMPK α2β2γ1, relative to control (100%)

Row | Structure (SMILES) | EC150 (compound concentration showing 150% relative to the control (100%)) [1] [nM] | Emax [2] [%] | also measured
1 | Cn1ccc2cc(-c3nc4c(C#N)c(O[C@@H]5CO[C@H]6[C@@H]5OC[C@H]6O)[nH]c4cc3Cl)ccc21 [Compound I-2-28] | 57 | 446 | –
2 | O[C@@H]1CO[C@H]2[C@@H]1OC[C@H]2Oc1cc2nc(-c3ccc(OCCCN4CCOCC4)cc3)c(F)cc2[nH]1 [Compound I-3-6] | 74 | 475 | –
3 | COC(=O)NC1CC=C(c2ccc(-c3nc4cc(O[C@@H]5CO[C@H]6[C@@H]5OC[C@H]6O)[nH]c4cc3F)cc2)CC1 (stereo partly drawn) [Compound I-4-58] | 4.3 | 486 | –
4 | N#Cc1cc2[nH]c(O[C@@H]3CO[C@H]4[C@@H]3OC[C@H]4O)cc2nc1-c1ccc(-c2ccccc2)cc1 [Compound I-2-45] | 19 | 492 | –
5 | COc1cc(F)c(-c2nc3cc(O[C@@H]4CO[C@H]5[C@@H]4OC[C@H]5O)[nH]c3cc2F)c(F)c1 [Compound I-3-28] | 87 | 430 | –
6 | COc1ccc(-c2nc3cc(O[C@@H]4CO[C@H]5[C@@H]4OC[C@H]5O)[nH]c3cc2F)cc1 [Compound I-2-71] | 89 | 446 | –
7 | N#Cc1cc2[nH]c(O[C@@H]3CO[C@H]4[C@@H]3OC[C@H]4O)cc2nc1-c1ccc(N2CCOCC2)cc1F [Compound I-2-42] | 48 | 481 | –
8 | CC(=O)Nc1nc(-c2ccc(-c3nc4cc(O[C@@H]5CO[C@H]6[C@@H]5OC[C@H]6O)[nH]c4cc3F)cc2)cs1 [Compound I-3-10] | 7.9 | 391 | –
9 | O[C@@H]1CO[C@H]2[C@@H]1OC[C@H]2Oc1cc2nc(-c3ccc(N4CCOCC4)cc3)c(F)cc2[nH]1 [Compound I-1-39] | 5.3 | 788 | –
10 | O[C@@H]1CO[C@H]2[C@@H]1OC[C@H]2Oc1[nH]c2cc(F)c(-c3ccc(C4=CCOCC4)cc3)nc2c1Cl [Compound I-1-45] | 13 | 718 | –
11 | O[C@@H]1CO[C@H]2[C@@H]1OC[C@H]2Oc1cc2nc(-c3c(F)cc(C4=CCOCC4)cc3F)c(F)cc2[nH]1 [Compound I-1-6] | 2 | 647 | –
12 | CS(=N)(=O)c1ccc(-c2ccc(-c3nc4cc(O[C@@H]5CO[C@H]6[C@@H]5OC[C@H]6O)[nH]c4cc3F)cc2)cc1 (stereo partly drawn) [Compound I-3-43] | 0.84 | 538 | –
13 | CCS(C)(=O)=Nc1ccc(-c2ccc(-c3nc4cc(O[C@@H]5CO[C@H]6[C@@H]5OC[C@H]6O)[nH]c4cc3F)cc2)cc1 (stereo partly drawn) [Compound I-4-43] | 1.3 | 453 | –
14 | Cn1cc(-c2ccc(-c3nc4cc(O[C@@H]5CO[C@H]6[C@@H]5OC[C@H]6O)[nH]c4cc3F)cc2)cn1 [Compound I-3-25] | 6.6 | 493 | –
15 | O=C(CO)N1CC=C(c2ccc(-c3nc4cc(O[C@@H]5CO[C@H]6[C@@H]5OC[C@H]6O)[nH]c4cc3F)cc2)CC1 [Compound I-1-50] | 2.4 | 827 | –
16 | O[C@@H]1CO[C@H]2[C@@H]1OC[C@H]2Oc1cc2nc(-c3ccc(N4CCOCC4)cc3)c(C(F)(F)F)cc2[nH]1 [Compound I-2-2] | 38 | – | Emax (maximum rate of increase in activity within the measurement range) [2]: 511%
17 | O=C(CO)N1CC=C(c2cc(F)c(-c3nc4cc(O[C@@H]5CO[C@H]6[C@@H]5OC[C@H]6O)[nH]c4cc3Cl)c(F)c2)CC1 [Compound I-1-10] | 1.8 | 751 | –

Row | Structure (SMILES) | EC150 (compound concentration showing 150% relative to the control (100%)) [1] [nM] | Emax [2] [%] | also measured
18 | N#Cc1c(Cl)c(-c2ccc(N3CCOCC3)cc2)nc2cc(O[C@@H]3CO[C@H]4[C@@H]3OC[C@H]4O)[nH]c12 [Compound I-2-7] | – | – | EC150 (compound concentration showing 150% relative to the control (100%)): 36 nM; Emax (maximum rate of increase in activity within the measurement range): 322%
19 | O[C@@H]1CO[C@H]2[C@@H]1OC[C@H]2Oc1cc2nc(NC3CCc4cc(F)cc(F)c43)c(C(F)(F)F)cc2[nH]1 (stereo partly drawn) [Compound I-3-19] | 120 | 543 | –
20 | CN(C)CCOc1ccc(-c2ccc(-c3nc4c(C#N)c(O[C@@H]5CO[C@H]6[C@@H]5OC[C@H]6O)[nH]c4cc3Cl)cc2)cc1 [Compound I-1-37] | 6 | 859 | –
21 | COc1cccc(-c2ccc(-c3nc4c(C#N)c(O[C@@H]5CO[C@H]6[C@@H]5OC[C@H]6O)[nH]c4cc3Cl)cc2)c1O [Compound I-1-38] | 1.5 | 841 | –
22 | N#Cc1cc2[nH]c(O[C@@H]3CO[C@H]4[C@@H]3OC[C@H]4O)cc2nc1-c1ccc(N2CCOCC2)cc1 [Compound I-1-4] | 8.3 | 849 | –
23 | O[C@@H]1CO[C@H]2[C@@H]1OC[C@H]2Oc1cc2nc(-c3ccc(-c4ccsc4)cc3)c(F)cc2[nH]1 [Compound I-3-23] | 5 | 510 | –
24 | Cn1cc(-c2ccc(-c3nc4c(C#N)c(O[C@@H]5CO[C@H]6[C@@H]5OC[C@H]6O)[nH]c4cc3Cl)cc2)cn1 [Compound I-2-11] | 40 | 867 | –
25 | O[C@@H]1CO[C@H]2[C@@H]1OC[C@H]2Oc1[nH]c2cc(Cl)c(-c3ccc(N4CCOCC4)cc3)nc2c1Cl [Compound I-1-11] | 3.9 | 770 | –
26 | O[C@@H]1CO[C@H]2[C@@H]1OC[C@H]2Oc1cc2nc(-c3ccc(N4CCOCC4)cc3F)c(Cl)cc2[nH]1 [Compound I-1-25] | 11 | 768 | –
27 | O[C@@H]1CO[C@H]2[C@@H]1OC[C@H]2Oc1cc2nc(-c3ccc(C4(O)CCC4)cc3)c(F)cc2[nH]1 [Compound I-2-34] | 20 | 495 | –
28 | CS(=O)(=O)N1C2C=C(c3ccc(-c4nc5cc(O[C@@H]6CO[C@H]7[C@@H]6OC[C@H]7O)[nH]c5cc4F)cc3)CC1CC2 (stereo partly drawn) [Compound I-3-4] | 30 | – | Emax (maximum rate of increase in activity within the measurement range) [2]: 568%
29 | COC(=O)NC1CCN(c2ccc(-c3nc4cc(O[C@@H]5CO[C@H]6[C@@H]5OC[C@H]6O)[nH]c4cc3F)cc2)CC1 [Compound I-4-53] | 10 | 509 | –
30 | O[C@@H]1CO[C@H]2[C@@H]1OC[C@H]2Oc1cc2nc(-c3ccc([C@H]4C[C@H](O)[C@H](O)CO4)cc3)c(F)cc2[nH]1 [Compound I-2-61-b] | 6.4 | 442 | –
31 | CS(C)(=O)=Nc1ccc(-c2ccc(-c3nc4cc(O[C@@H]5CO[C@H]6[C@@H]5OC[C@H]6O)[nH]c4cc3F)c(F)c2)cc1 [Compound I-4-5] | 3.2 | 510 | –
32 | CS(C)(=O)=Nc1ccc(-c2ccc(-c3nc4cc(O[C@@H]5CO[C@H]6[C@@H]5OC[C@H]6O)[nH]c4cc3F)cc2)cc1 [Compound I-3-40] | 0.91 | – | Emax: 491%
33 | O=C(CO)N1CC=C(c2ccc(-c3nc4cc(O[C@@H]5CO[C@H](CO)C5)[nH]c4cc3F)cc2)CC1 [Compound I-2-33] | 2.5 | 511 | –
